Patent US8207142B2, “Inhibitor of DNA methylation” (priority 2001, dated 2012)
Values joined by “and” are separate entries in the source; they are usually repeats but may differ in a detail not shown here. Equal entries are not always repeated.

How the values were obtained:
[1] = system: DNA methylation of the am^RIP and ψ63 sequences; assay: Southern blot analysis of DNA methylation in N. crassa (Dpn II vs Sau3AI digests); type: cell-based, Neurospora crassa; conditions: 12 and 24 μM 5-AC; 0.33 and 3.3 μM TSA; 20, 39, 78, 160 and 310 μM Zebularine
Method: DNA was digested with Dpn II (D) or Sau3AI (S), fractionated by gel electrophoresis, transferred to a membrane and probed for am (FIG. 4A) or ψ63 (FIG. 4B) sequences. Dpn II and Sau3AI both recognize the sequence GATC, but Sau3AI fails to cleave if the C residue is methylated. Thus, differences between S and D lanes are indicative of DNA methylation.
The ramp symbols at the top of the figure represent increasing concentrations of drug. Drug concentrations were 12 and 24 μM 5-AC; 0.33 and 3.3 μM TSA; and 20, 39, 78, 160 and 310 μM Zebularine. The positions of selected size standards (kb) are indicated.
Southern hybridizations were performed on DNA samples (−1 μg) isolated from liquid cultures inoculated with 7×10^4 conidia/ml. DNA was digested with Dpn II (D) or Sau3AI (S), fractionated by gel electrophoresis, transferred to a nylon membrane and probed for am^RIP (FIG. 4A) or ψ63 (FIG. 4B) sequences. The restriction endonucleases Dpn II and-Sau3AI both recognize the sequence GATC, but Sau3AI fails to cleave if the C residue is methylated. Drug concentrations were […] 5-AC, 0.33 and 3.3 μM TSA, and […] Zebularine.
The positions of selected size standards (kb) and the origin (ori) are indicated. […] Differences between S and D lanes are indicative of DNA methylation.

[2] = system: 10T1/2 cells; assay: Colony-formation assay (plating efficiency) in 10T1/2 cells; type: cell-based, mouse
Method: (§1) The percentage cell survival was assessed by dividing the mean colony number on the treated plates divided by the mean colony number on the untreated plates ×100.

[3] = system: T24 cells; assay: Colony-formation assay (decrease in plating efficiency) in T24 cells; type: cell-based, human; conditions: 3 μM, 24 hrs
Method: as §1

[4] = system: p3 locus; assay: Ms-SNuPE quantitation of DNA methylation in 10T1/2 cells; type: cell-based, mouse; conditions: 0.3 μM, 24 hours, control 86
Method: (§2) The average methylation at defined CpG sites was quantitated using a Ms-SNuPE assay, as described by Gonzalgo and Jones (Nucleic Acids Res. 25:2529-2531, 1997) and U.S. Pat. No. 6,251,594. Briefly, genomic DNA (˜4 μg) was digested overnight with 4 units of EcoRI (Boehringer Mannheim) (p16 promoter/exon 1 and p16 exon 2; FIG. 9A) or with 4 units of RsaI (Boehringer Mannheim) (P3; FIG. 9B) to cut outside the region of interest.
(§3) After standard treatment with sodium bisulfite, a PCR product of the region was generated as template for top-strand methylation analysis. The sequences of the primers used for bisulfite-treated DNA amplification were as follows: […]
P3: 95° C. for 2 minutes, 95° C. for 1 minute, 50° C. for 50 seconds, and 72° C. for 1 minute for 40 cycles, with a final extension at 72° C. for 10 minutes.
(§4) Duplicates of 4 μl of template were then added to 6 μl of mixture consisting of 1× PCR buffer, 1 μM final concentration primers, 1 μCi of [^32P]dCTP or dTTP, and 1 unit 1:1 Taq/TaqStart antibody (Clontech, Palo Alto, Calif.). Single nucleotide extension involved incubation at 95° C. for 1 minute, then 50° C. for 2 minutes, and finally 72° C. for 1 minute (p16 promoter/exon1 and P16 exon 2) and 95° C. for 1 minute, then 46° C. for 30 seconds, and finally 72° C. for 20 seconds (P3). The sequences for SNuPE primers were as follows: […]
(§5) After briefly spinning down the tubes, 4 μl of stop solution were added to the 10-μl reaction volume, and the samples were boiled for 5 minutes at 95° C. before loading 1.5 μl onto a 15% denaturing polyacrylamide gel (7 M urea). The gel was run at 90 W for 1.5 hours and then dried at 80° C. for 40 minutes. The gel was exposed to a phosphorimaging cassette for quantitation of the ratio of [^32P]dCTP versus [^32P]dTTP incorporation, and the quantitation of the percent methylation was averaged from three separate CpG sites. The gel was then exposed to BioMax MR film (Kodak) to record experimental results.

[5] = system: p16 exon 2; assay: Ms-SNuPE quantitation of DNA methylation in T24 cells, p16 exon 2; type: cell-based, human; conditions: 3 μM, 24 hrs
Method: as §2, §3
p16 exon 2: 94° C. for 3 minutes, 94° C. for 1 minute, 62° C. for 45 seconds, and 72° C. for 45 seconds for 40 cycles, with a final extension step at 72° C. for 10 minutes.
as §4, §5

[6] = system: p16 promoter; assay: Ms-SNuPE quantitation of DNA methylation in T24 cells, p16 promoter; type: cell-based, human; conditions: 3 μM, 24 hrs; control 96
Method: as §2, §3
p16 promoter/exon 1: 94° C. for 3 minutes, 94° C. for 45 seconds, 67° C. for 45 seconds, and 72° C. for 45 seconds for 40 cycles, with a final extension step at 72° C. for 10 minutes.
as §4, §5

[7] = system: p16 gene expression in T24 cells; assay: RT-PCR analysis of p16 expression in T24 cells; type: cell-based, human; conditions: 3 μM
Method: The T24 cell line was obtained from the American Type Culture Collection (Rockville, Md.) and cultured in DMEM supplemented with 10% heat-inactivated fetal calf serum and 100 U/ml penicillin-streptomycin. Cultures were grown in a humidified incubator at 37° C. in an atmosphere of 5% CO2 in air.
Cells were plated (3×10^5 cells/100-mm dish) and treated 24 hours later with the indicated concentrations of compounds. The medium was either changed 24 hours or 48 hours after drug treatment.
DNA and RNA were isolated three days after treatment using the NucleoBond RNA/DNA Midi Kit (Clontech Laboratories, Inc., Palo Alto, Calif.).
Total RNA (˜10 μg) was reverse-transcribed using the following reagents: 100 units RNAsin (Promega Corp., Madison, Wis.), 0.1 M DTT (Life Technologies, Inc.), 1000 units of MMLV-RT (Life Technologies, Inc.), 1 mM deoxynucleotide triphosphates (Boehringer Mannheim, Germany), 75 μg/ml BSA, 1× MMLV-RT buffer (Life Technologies, Inc.), and 0.025 ODU Random Hexamers (Amersham-Pharmacia Biotech, Piscataway, N.J.). The reaction mixture was incubated for 10 minutes at 25° C., 45 minutes at 42° C., 3 minutes at 90° C., and chilled for 5 minutes at 4° C., during which time 1.25 μl of MMLV-RT (200 U/μl) were added and the sample then incubated for 45 minutes at 42° C., 10 minutes at 75° C., and stored at −20° C.
cDNA was amplified with primers specific for either p16 or GAPDH. Briefly, PCR reactions were performed in 25-μl volumes at 94° C. for 3 minutes, 28 cycles at 94° C. for 1 minute, 56° C. for 30 seconds, 72° C. for 40 seconds, and a final extension step at 72° C. for 5 min (p16 amplification), and 94° C. for 1 minute, 19 cycles at 94° C. for 1 minute, 58° C. for 30 seconds, 72° C. for 45 seconds, and a final extension step at 72° C. for 2 minutes (GAPDH amplification).
PCR amplifications were performed with cDNA template concentration equivalent to 100 ng of RNA in 10% DMSO. All reactions were analyzed in the linear range of amplification. PCR products were resolved on 2% agarose gels and subsequently transferred to a nylon membrane (Zetaprobe; Bio-Rad, Richmond, Calif.) under alkaline conditions. All blots were hybridized with a γ-^32P-labeled internal oligonucleotide probe, using protocols previously described (Xiong and Laird, Nuc. Acids Res. 25:2532-2534, 1997).
Since 5-Aza-CdR has been shown previously to induce p16 expression in a dose-dependent manner (Bender et al., Cancer Res. 58:95-101, 1998), the two ribonucleoside analogs 5-Aza-CR and Zeb were examined to determine their abilities to induce p16 expression (FIG. 8). Because Zeb is stable in aqueous solution, the effect of prolonging Zeb treatment on p16 expression was tested by treating these cells with different concentrations of Zeb for either 24 hours or 48 hours. RT-PCR was then performed to determine whether p16 gene was induced by drug treatment.

[8] = system: 10T1/2 cells; assay: Induction of a myogenic phenotype (myotube formation) in 10T1/2 cells; type: cell-based, mouse; set-up: key to Muscle Formation: + representing minimal muscle formation; scored for muscle cells 9-10 days later as + to +++; +++ representing maximal muscle formation
Method: Cells were plated (3×10^5 cells/100-mm dish) and treated 24 hours later with the indicated concentrations of compounds. The medium was either changed 24 hours or 48 hours after drug treatment. Myotube formation was assayed in 10T1/2 cells as previously described (Constantinides et al., Nature 267:364-366, 1977). […] The ability of Zebularine to cause 10T1/2 cells to undergo the myogenic switch was therefore tested (FIG. 7).

Row | Compound | effect on DNA methylation (Southern blot) [1] | decrease in plating deficiency (cytotoxicity) ([2]; 0.3 μM, 10T1/2 cells) [%] | Ave. Plating Efficiency (%) ([2]; 0.3 μM, 250 cells, stained after 14-16 days, control 22) | cell death observed ([2]; 10T1/2 cells, 0.3 μM 5-Aza-CdR, 3 μM 5-Aza-CR, 30 μM Zebularine) | Toxicity (%) (decrease in plating efficiency) [3] | % Methylation [4] | Relative p16 Exon 2 De-methylation (%) [5] | p16 Exon 2 Methylation (%) ([5]; control 96) | p16 Promoter Methylation (%) [6] | p16 expression (RT-PCR) [7] | Muscle Formation ([8]; 0.3 μM, 24 hours treatment, scored 9-10 days later) | muscle formation (micrographs, in words) ([8]; 10T1/2 cells, approximately 9-10 days after drug treatment)
1 | CC(/C=C/C(=O)NO)=C\[C@@H](C)C(=O)c1ccc(N(C)C)cc1 [TSA, trichostatin A] | selective inhibition of methylation | – | – | – | – | – | – | – | – | – | – | –
2 | Nc1ncn([C@H]2C[C@H](O)[C@@H](CO)O2)c(=O)n1 [5-Aza-CdR, 5-aza-2′-deoxycytidine] | – | 74 | 5 | appreciable cell death | 75 | 54% and 54 +/− 5% | 47 +/− 1% | 51 +/− 1% | 52% and 52 +/− 5% | robust expression of p16 | +++ | formed multinucleated myotubes
